From patent US20240390434A1, “PROBIOTIC ENHANCERS AND USES THEREOF” (Blis Technologies Limited, priority 2021, published 2024)

System: indicator strains
Assay: Deferred antagonism assay, producer S. salivarius K12: total strains inhibited
Type: cell-based
Conditions: K12
Procedure: 1-2 producer strain colonies were transferred from a stock plate into 900 μL of suspension solution using a fresh cotton swab. Following this, suspensions were vortexed, and a sample was inoculated onto solid culture media using a fresh cotton swab. The inoculation was a streak that runs diametrically across the agar plate in a 1.5 cm wide strip. The plate was then incubated. Following incubation all visible colonies were removed by swabbing them from the agar surface. The plates were then treated with chloroform by dispensing 2 ml of chloroform onto 4 cm×4 cm piece of cloth and sealing the inverted agar plate on top for 30 minutes. The plates were then air dried for 30 minutes following chloroforming. 1-2 indicator strain colonies were then transferred from a stock plate into complementary suspension solution. The suspensions were then vortexed, and a sample was inoculated onto the same agar surface. These samples were streaked in a perpendicular direction to the initial producer streak.
Each indicator streak was prepared with fresh a suspension containing cells from a corresponding stock plate containing the indicator strain of interest. Indicator strains suspension samples were transferred using a fresh cotton swab. Results were measured by qualitatively reviewing the subsequent (if any) sizes of the zones of inhibition (ZOI) of indicator strain colony growth. A positive result is when there is a distinctive reduction or complete inhibition of indicator colony growth on the culture medium.
CABCa agar plates containing various concentrations of saccharide were prepared according to the methods described in Method 1. Producer strains were transferred from stock agar plates into 900 μL THB using a fresh cotton swab. A plastic spread plater was cut to approximately 1.2 cm width and then dipped into ethanol and left to air dry to ensure sterility. A 100 μL sample of the producer strain suspension was then dispensed onto the agar surface in a straight line running diametrically across the agar surface in (approximately) 20 μL spots. The spots were spaced approximately 1.5 cm apart from each other. The plastic spreader was then used to evenly distribute the spots across the agar surface in a 1.5 cm wide strip. This step was taken to ensure an even producer streak was inoculated onto the agar surface and provided an approximate measure of the initial inoculum concentration. Separate plastic spreaders were used for samples containing different producer strains. The samples were left to soak into the agar surface until there was no visible liquid remaining on the agar surface (approximately 20 minutes). Following producer streak preparations, the deferred antagonism assay protocol was followed as per Method 2. Results were recorded by measuring the size of the zone of inhibition (ZOI) in mm.
A dose response assay was carried out according to method 3 above, except a 1.2 cm streak was used. For the individual saccharide testing the pH of the producer streak was adjusted after the growth of producer to change the acidic conditions.
A deferred antagonism assay was conducted using K12 or M18 raw ingredient suspended in Todd Hewitt broth (THB). This was spread as a 1.2 cm streak containing approximately 1-2×10^6 cfu down the middle of a CABCa control or CABCa galactose supplemented test plate. After 18 hrs growth at 37° C. with 5% CO2, bacterial growth was removed, and the pH of the agar in the initial streak was measured and adjusted to a pH of 6.5-7.5 using 0.5M sodium carbonate pH11 before sterilizing the agar surface using chloroform vapor. Bacterial test strains were suspended in i-THB before being swabbed across the plates perpendicular to the initial streak. Plates were incubated for a further 18 hrs incubation at 37° C. with 5% CO2 before measuring (mm) any zones of inhibition for each test strain, […]

O=C(CO)[C@@H](O)[C@H](O)[C@H](O)CO [Fructose, D-(−) Fructose, reference compound]
Total strains inhibited (saccharide 3.3% w/v): 0/3
Total strains inhibited (saccharide range 0.83%-3.3% w/v): 0/3
